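Grown in 96-well plates, cells were treated for 48 hours with each compound at five concentrations. Insufficient inhibition: endpoint recorded as highest concentration tested. GI50 is the concentration that inhibits growth by half.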 The source made the active and inactive calls. Cut-off read from the data, not from the text of the source: active = GI50 up to about 1.1 µM and inactive = higher.
Experiments:
Experiment in all cases: NCI anticancer screen, dose series, 48 h
HT-29 = system: HT-29
MOLT-4 = system: MOLT-4
NCI/ADR-RES = system: NCI/ADR-RES
SF-268 = system: SF-268
UO-31 = system: UO-31
SF-295 = system: SF-295
RPMI-8226 = system: RPMI-8226
NCI-H522 = system: NCI-H522
NCI-H23 = system: NCI-H23
SW-620 = system: SW-620
KM12 = system: KM12
MDA-MB-231 = system: MDA-MB-231
OVCAR-4 = system: OVCAR-4
HOP-62 = system: HOP-62
RXF 393 = system: RXF 393
CCRF-CEM = system: CCRF-CEM
UACC-257 = system: UACC-257
SF-539 = system: SF-539
SK-MEL-2 = system: SK-MEL-2
SNB-75 = system: SNB-75
MDA-MB-435 = system: MDA-MB-435
HCT-15 = system: HCT-15
OVCAR-5 = system: OVCAR-5
OVCAR-3 = system: OVCAR-3
SR = system: SR
COLO 205 = system: COLO 205
HL-60 = system: HL-60
HCC 2998 = system: HCC 2998
A549 = system: A549
CAKI-1 = system: CAKI-1
M14 = system: M14
UACC-62 = system: UACC-62
U-251 = system: U-251
HOP-92 = system: HOP-92
SK-MEL-28 = system: SK-MEL-28
ACHN = system: ACHN
HCT-116 = system: HCT-116
MCF7 = system: MCF7
EKVX = system: EKVX
A498 = system: A498
TK-10 = system: TK-10
NCI-H226 = system: NCI-H226
Malme-3M = system: Malme-3M
Hs-578T = system: Hs-578T
SK-OV-3 = system: SK-OV-3
OVCAR-8 = system: OVCAR-8
IGROV-1 = system: IGROV-1
786-0 = system: 786-0
SNB-19 = system: SNB-19
BT-549 = system: BT-549
SK-MEL-5 = system: SK-MEL-5
K562 = system: K562
NCI-H460 = system: NCI-H460
PC-3 = system: PC-3
LOX IMVI = system: LOX IMVI
DU-145 = system: DU-145
SN12C = system: SN12C
MDA-N = system: MDA-N
T47D = system: T47D

CCCCCCCCCCCCCCCCCc1cccc(OCOCCOC)c1CO
GI50 (HT-29): > 100 µM (inactive)
GI50 (MOLT-4): > 100 µM (inactive)
GI50 (NCI/ADR-RES): > 100 µM (inactive)
GI50 (SF-268): > 100 µM (inactive)
GI50 (UO-31): > 100 µM (inactive)
GI50 (SF-295): > 100 µM (inactive)
GI50 (RPMI-8226): > 100 µM (inactive)
GI50 (NCI-H522): > 100 µM (inactive)
GI50 (NCI-H23): > 100 µM (inactive)
GI50 (SW-620): > 100 µM (inactive)
GI50 (KM12): > 100 µM (inactive)
GI50 (MDA-MB-231): > 100 µM (inactive)
GI50 (OVCAR-4): > 100 µM (inactive)
GI50 (HOP-62): > 100 µM (inactive)
GI50 (RXF 393): > 100 µM (inactive)
GI50 (CCRF-CEM): > 100 µM (inactive)
GI50 (UACC-257): > 100 µM (inactive)
GI50 (SF-539): > 100 µM (inactive)
GI50 (SK-MEL-2): > 100 µM (inactive)
GI50 (SNB-75): > 100 µM (inactive)
GI50 (MDA-MB-435): > 100 µM (inactive)
GI50 (HCT-15): > 100 µM
GI50 (OVCAR-5): > 100 µM (inactive)
GI50 (OVCAR-3): > 100 µM (inactive)
GI50 (SR): > 100 µM (inactive)
GI50 (COLO 205): > 100 µM (inactive)
GI50 (HL-60): > 100 µM (inactive)
GI50 (HCC 2998): > 100 µM (inactive)
GI50 (A549): > 100 µM (inactive)
GI50 (CAKI-1): > 100 µM (inactive)
GI50 (M14): > 100 µM (inactive)
GI50 (UACC-62): > 100 µM (inactive)
GI50 (U-251): > 100 µM (inactive)
GI50 (HOP-92): > 100 µM (inactive)
GI50 (SK-MEL-28): > 100 µM (inactive)
GI50 (ACHN): > 100 µM (inactive)
GI50 (HCT-116): > 100 µM (inactive)
GI50 (MCF7): > 100 µM (inactive)
GI50 (EKVX): > 100 µM (inactive)
GI50 (A498): > 100 µM (inactive)
GI50 (TK-10): > 100 µM (inactive)
GI50 (NCI-H226): > 100 µM (inactive)
GI50 (Malme-3M): > 100 µM (inactive)
GI50 (Hs-578T): > 100 µM (inactive)
GI50 (SK-OV-3): > 100 µM (inactive)
GI50 (OVCAR-8): > 100 µM (inactive)
GI50 (IGROV-1): > 100 µM (inactive)
GI50 (786-0): > 100 µM (inactive)
GI50 (SNB-19): > 100 µM (inactive)
GI50 (BT-549): > 100 µM (inactive)
GI50 (SK-MEL-5): > 100 µM (inactive)
GI50 (K562): > 100 µM (inactive)
GI50 (NCI-H460): > 100 µM (inactive)
GI50 (PC-3): > 100 µM (inactive)

CC(C)C(NC(=O)C(Cc1ccccc1)NC(=O)[C@H]1CCC[C@H]1NC(=O)C(Cc1ccc(OC(C)(C)C)cc1)NC(=O)OC(C)(C)C)C(N)=O (stereo partly specified)
GI50 (HT-29): 21.5 µM (inactive)
GI50 (MOLT-4): 17.4 µM (inactive)
GI50 (NCI/ADR-RES): > 100 µM (inactive)
GI50 (SF-268): 23.1 µM (inactive)
GI50 (UO-31): 47.4 µM (inactive)
GI50 (SF-295): 17.3 µM (inactive)
GI50 (RPMI-8226): 36.5 µM (inactive)
GI50 (NCI-H522): 14.9 µM (inactive)
GI50 (NCI-H23): 16.9 µM (inactive)
GI50 (SW-620): 20.9 µM (inactive)
GI50 (KM12): 21.9 µM (inactive)
GI50 (MDA-MB-231): 20.7 µM (inactive)
GI50 (OVCAR-4): 19.4 µM (inactive)
GI50 (HOP-62): 16.6 µM (inactive)
GI50 (RXF 393): 81.1 µM (inactive)
GI50 (LOX IMVI): 15.6 µM (inactive)
GI50 (CCRF-CEM): 16.6 µM (inactive)
GI50 (UACC-257): > 10 µM (inactive)
GI50 (SF-539): 16.5 µM (inactive)
GI50 (DU-145): 54.2 µM (inactive)
GI50 (SK-MEL-2): 26 µM (inactive)
GI50 (SNB-75): 11.4 µM (inactive)
GI50 (MDA-MB-435): 17 µM (inactive)
GI50 (SN12C): 18.2 µM (inactive)
GI50 (MDA-N): 18.3 µM (inactive)
GI50 (HCT-15): 36.1 µM
GI50 (OVCAR-5): 18.8 µM (inactive)
GI50 (OVCAR-3): 25.1 µM (inactive)
GI50 (SR): 34.9 µM (inactive)
GI50 (COLO 205): 19.6 µM (inactive)
GI50 (HL-60): 34.8 µM (inactive)
GI50 (HCC 2998): 16.5 µM (inactive)
GI50 (A549): 20.1 µM (inactive)
GI50 (CAKI-1): 95.9 µM (inactive)
GI50 (M14): 18 µM (inactive)
GI50 (UACC-62): 13.8 µM (inactive)
GI50 (U-251): 14.2 µM (inactive)
GI50 (HOP-92): 21.8 µM (inactive)
GI50 (SK-MEL-28): 18.4 µM (inactive)
GI50 (ACHN): 45.7 µM (inactive)
GI50 (HCT-116): 17.3 µM (inactive)
GI50 (T47D): 20 µM (inactive)
GI50 (MCF7): 19.8 µM (inactive)
GI50 (EKVX): > 100 µM (inactive)
GI50 (A498): 10.7 µM (inactive)
GI50 (TK-10): 28.5 µM (inactive)
GI50 (NCI-H226): 22.4 µM (inactive)
GI50 (Malme-3M): > 10 µM (inactive)
GI50 (Hs-578T): > 10 µM (inactive)
GI50 (SK-OV-3): 17.9 µM (inactive)
GI50 (OVCAR-8): 16.6 µM (inactive)
GI50 (IGROV-1): 31.3 µM (inactive)
GI50 (786-0): 60.1 µM (inactive)
GI50 (SK-MEL-5): 9.95 µM (inactive)
GI50 (K562): 17.8 µM (inactive)
GI50 (NCI-H460): 19.2 µM (inactive)
GI50 (PC-3): 17.8 µM (inactive)

O=C(c1ccc(Cl)cc1)C(O)c1ccc(Cl)cc1 (stereo unspecified)
GI50 (HT-29): > 100 µM (inactive)
GI50 (MOLT-4): 24.8 µM (inactive)
GI50 (NCI/ADR-RES): > 100 µM (inactive)
GI50 (SF-268): > 100 µM (inactive)
GI50 (UO-31): > 100 µM (inactive)
GI50 (SF-295): > 100 µM (inactive)
GI50 (RPMI-8226): 60.4 µM (inactive)
GI50 (NCI-H522): 42 µM (inactive)
GI50 (NCI-H23): 70.3 µM (inactive)
GI50 (SW-620): > 100 µM (inactive)
GI50 (KM12): 41.6 µM (inactive)
GI50 (MDA-MB-231): > 100 µM (inactive)
GI50 (OVCAR-4): 86.3 µM (inactive)
GI50 (HOP-62): > 100 µM (inactive)
GI50 (RXF 393): > 100 µM (inactive)
GI50 (LOX IMVI): > 100 µM (inactive)
GI50 (CCRF-CEM): > 100 µM (inactive)
GI50 (UACC-257): 52.8 µM (inactive)
GI50 (SF-539): 65.5 µM (inactive)
GI50 (DU-145): 92 µM (inactive)
GI50 (SK-MEL-2): > 100 µM (inactive)
GI50 (SNB-75): > 100 µM (inactive)
GI50 (MDA-MB-435): > 100 µM (inactive)
GI50 (SN12C): > 100 µM (inactive)
GI50 (HCT-15): > 100 µM
GI50 (OVCAR-5): > 100 µM (inactive)
GI50 (OVCAR-3): 43.8 µM (inactive)
GI50 (SR): 25.4 µM (inactive)
GI50 (COLO 205): > 100 µM (inactive)
GI50 (HL-60): 32.5 µM (inactive)
GI50 (HCC 2998): > 100 µM (inactive)
GI50 (A549): 59.7 µM (inactive)
GI50 (CAKI-1): > 100 µM (inactive)
GI50 (M14): > 100 µM (inactive)
GI50 (UACC-62): 42 µM (inactive)
GI50 (U-251): > 100 µM (inactive)
GI50 (HOP-92): 30.8 µM (inactive)
GI50 (SK-MEL-28): > 100 µM (inactive)
GI50 (ACHN): > 100 µM (inactive)
GI50 (HCT-116): > 100 µM (inactive)
GI50 (MCF7): 75.7 µM (inactive)
GI50 (EKVX): 34.2 µM (inactive)
GI50 (TK-10): 63.4 µM (inactive)
GI50 (NCI-H226): > 100 µM (inactive)
GI50 (Malme-3M): 40.3 µM (inactive)
GI50 (Hs-578T): 45.3 µM (inactive)
GI50 (OVCAR-8): 63.2 µM (inactive)
GI50 (IGROV-1): 85.3 µM (inactive)
GI50 (786-0): > 100 µM (inactive)
GI50 (SNB-19): > 100 µM (inactive)
GI50 (BT-549): 53.8 µM (inactive)
GI50 (SK-MEL-5): 30.9 µM (inactive)
GI50 (K562): 30.8 µM (inactive)
GI50 (NCI-H460): > 100 µM (inactive)
GI50 (PC-3): 46.6 µM (inactive)
